This passage reports pest or weed control results from US20210403435A1, “HERBICIDAL COMPOUNDS” (SYNGENTA CROP PROTECTION AG, priority 2018, published 2021).

Each structure is given as a SMILES string.

Holding throughout (assay): Post-emergence efficacy, glasshouse, evaluated after 13 days
What all share (type): in vivo

Assay [1] concerns Echinochloa crus-galli (ECHCG). Particulars: Echinochloa crus-galli, 312 h; post-emergence application, 500 g/Ha, evaluated after 13 days; read-out: Control of weed species ECHCG (100=total damage to plant; 0=no damage to plant). The method in brief: (§1)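 Scoring: 0 (no damage) to 100 (total damage), 13 days post-spray. Treatment applied post-emergence to plants grown 14 days in a controlled glasshouse at 24/16 °C and 65% humidity.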

The subject of assay [2] is Euphorbia heterophylla (EPHHL). The note with it: Euphorbia heterophylla, 312 h; post-emergence application, 500 g/Ha, evaluated after 13 days; read-out: Control of weed species EPHHL (100=total damage to plant; 0=no damage to plant). The procedure, abridged:
as §1

A further assay has as its system Setaria faberi (SETFA). Particulars: Setaria faberi, 312 h; post-emergence application, 500 g/Ha, evaluated after 13 days; read-out: Control of weed species SETFA (100=total damage to plant; 0=no damage to plant). The procedure, abridged:
as §1

Another assay deals with Eleusine indica (ELEIN). The note with it: Eleusine indica, 312 h; post-emergence application, 500 g/Ha, evaluated after 13 days; read-out: Control of weed species ELEIN (100=total damage to plant; 0=no damage to plant). The procedure, abridged:
as §1

The subject of assay [3] is Digitaria sanguinalis (DIGSA). The note with it: Digitaria sanguinalis, 312 h; post-emergence application, 500 g/Ha, evaluated after 13 days; read-out: Control of weed species DIGSA (100=total damage to plant; 0=no damage to plant). The procedure, abridged:
as §1

A further assay concerns Lolium perenne (LOLPE). The note with it: Lolium perenne, 312 h; post-emergence application, 500 g/Ha, evaluated after 13 days; read-out: Control of weed species LOLPE (100=total damage to plant; 0=no damage to plant). The procedure, abridged:
as §1

In assay [4] the test system is Amaranthus palmeri (AMAPA). The note with it: Amaranthus palmeri, 312 h; post-emergence application, 500 g/Ha, evaluated after 13 days; read-out: Control of weed species AMAPA (100=total damage to plant; 0=no damage to plant). The method in brief: as §1
Assay [5] relates to Ipomoea hederacea (IPOHE). The note with it: Ipomoea hederacea, 312 h; post-emergence application, 500 g/Ha, evaluated after 13 days; read-out: Control of weed species IPOHE (100=total damage to plant; 0=no damage to plant). The procedure, abridged: as §1
Assay [6] deals with Chenopodium album (CHEAL). Particulars: Chenopodium album, 312 h; post-emergence application, 500 g/Ha, evaluated after 13 days; read-out: Control of weed species CHEAL (100=total damage to plant; 0=no damage to plant). The procedure, abridged: as §1

Take `O=C(O)CC[n+]1ccc(C(=O)NCCO)cn1` [Compound A44]: the pest or weed control at 500 g/ha in assay [1] turned out to be 90%; in assay [2] it was 100%; in the assay on Setaria faberi (SETFA) it was 100%; in the assay with Eleusine indica (ELEIN) it was 30%; in assay [3], 100%; with Lolium perenne (LOLPE), 30%. Further, the pest or weed control at 500 g/ha in assay [4], in assay [5] and in assay [6] was 100% in each case.
On to `N#Cc1ccc(CNC(=O)c2cc[n+](CCC(=O)O)nc2)cc1` [Compound A96], for which the pest or weed control at 500 g/ha in assay [1] came to 20%; in assay [2] it was 100%; in the assay with Setaria faberi (SETFA) it was 30%; in the assay with Eleusine indica (ELEIN), 50%; in assay [3], 20%; in the assay with Lolium perenne (LOLPE), 20%. The figures for the pest or weed control at 500 g/ha in assay [4], in [5] and in assay [6] were 100%, 40% and 80%, respectively.
For `CC(C)N(C)C(=O)c1cc[n+](CCC(=O)O)nc1` [Compound A34], the pest or weed control at 500 g/ha came out at 30% in assay [1]; 70% in assay [2]; 70% with Setaria faberi (SETFA); 20% in the assay on Eleusine indica (ELEIN); 70% in assay [3]; 30% with Lolium perenne (LOLPE). Further, the pest or weed control at 500 g/ha in assay [4] was 100%; in assay [5] it was 20%; in assay [6], 40%.
Consider `CCNC(=O)c1cc[n+](CC(=O)OC)nc1` [Compound A89], for which the pest or weed control at 500 g/ha in assay [1] is 0%; in assay [2], 20%; in the assay with Setaria faberi (SETFA), 0%; in the assay with Eleusine indica (ELEIN), 0%; in assay [3], 0%; with Lolium perenne (LOLPE) it was 0%. Moreover, the pest or weed control at 500 g/ha in assay [4] turned out to be 0%; in [5], 20%; in assay [6], 0%.
Regarding `C=CCNC(=O)c1cc[n+](CCNS(=O)(=O)[O-])nc1` [Compound A140], the pest or weed control at 500 g/ha in assay [1] came out at 70%; in [2] it was 90%; with Setaria faberi (SETFA), 90%; in the assay with Eleusine indica (ELEIN) it was 100%; in assay [3] it was 90%; in the assay on Lolium perenne (LOLPE) it was 20%. The pest or weed control at 500 g/ha in [4] came to 100%; in [5], 60%; in assay [6], 100%.
Regarding `O=C(O)CC[n+]1ccc(C(=O)NC2CCCCC2)cn1` [Compound A59], the pest or weed control at 500 g/ha in assay [1] came out at 20%; in [2] it was 10%; with Setaria faberi (SETFA), 30%; in the assay with Eleusine indica (ELEIN), 20%; in [3] it was 60%; in the assay with Lolium perenne (LOLPE), 20%. The figures for the pest or weed control at 500 g/ha in assay [4], in [5] and in assay [6] were 70%, 20% and 50%, respectively.
As to `O=C(O)CC[n+]1ccc(C(=O)NCC(F)(F)F)cn1` [Compound A47], the pest or weed control at 500 g/ha is 100% in assay [1]; 100% in [2]; 90% in the assay on Setaria faberi (SETFA); 20% in the assay with Eleusine indica (ELEIN); 100% in assay [3]; 30% in the assay on Lolium perenne (LOLPE). The pest or weed control at 500 g/ha turned out to be 100% in assay [4], 90% in [5] and 90% in assay [6].
Consider `CCNC(=O)c1cc[n+](C(C)CC(=O)O)nc1` (stereo not drawn) [Compound A61], for which the pest or weed control at 500 g/ha was found to be 50% in assay [1]; 80% in [2]; 50% in the assay on Setaria faberi (SETFA); 90% with Eleusine indica (ELEIN); 100% in [3]; 80% in the assay on Lolium perenne (LOLPE). For the same compound, the pest or weed control at 500 g/ha in assay [4] stood at 100%; in [5] it was 70%; in assay [6] it was 90%.
In the case of `CNC(=O)c1cn[n+](CCC(=O)O)cc1C` [Compound A53], the pest or weed control at 500 g/ha in assay [1] was 70%; in [2], 60%; in the assay with Setaria faberi (SETFA), 90%; with Eleusine indica (ELEIN), 40%; in [3] it was 80%; in the assay on Lolium perenne (LOLPE), 20%. For the same compound, the figures for the pest or weed control at 500 g/ha in assay [4], in [5] and in [6] were 90%, 50% and 70%, respectively.
As to `CN(C)S(=O)(=O)CCNC(=O)c1cc[n+](CCC(=O)O)nc1` [Compound A110], the pest or weed control at 500 g/ha in assay [1] stood at 50%; in assay [2], 60%; with Setaria faberi (SETFA) it was 90%; with Eleusine indica (ELEIN), 30%; in assay [3], 100%; in the assay on Lolium perenne (LOLPE), 60%. The figures for the pest or weed control at 500 g/ha in assay [4], in assay [5] and in [6] were 90%, 20% and 50%, respectively.
Take `O=C(O)CC[n+]1ccc(C(=O)NCc2ccccc2)cn1` [Compound A21]: the pest or weed control at 500 g/ha in assay [1] came to 90%; in [2] it was 90%; in the assay with Setaria faberi (SETFA), 60%; with Eleusine indica (ELEIN), 90%; in assay [3], 70%; in the assay with Lolium perenne (LOLPE) it was 40%. Also, the pest or weed control at 500 g/ha came to 90% in assay [4], 60% in assay [5] and 90% in assay [6].
With `O=C(Nc1ccccc1)c1cc[n+](CCS(=O)(=O)[O-])nc1` [Compound A7], the pest or weed control at 500 g/ha in assay [1] is 20%; in [2], 60%; in the assay on Setaria faberi (SETFA), 30%; with Eleusine indica (ELEIN), 40%; in assay [3] it was 20%; in the assay with Lolium perenne (LOLPE), 20%. For the same compound, the results for the pest or weed control at 500 g/ha in assay [4], in assay [5] and in assay [6] were 100%, 10% and 90%, respectively.
Regarding `O=C(O)CC[n+]1ccc(C(=O)NCc2ccc(C(F)(F)F)cc2)cn1` [Compound A98], the pest or weed control at 500 g/ha in assay [1] came to 50%; in assay [2] it was 100%; in the assay on Setaria faberi (SETFA), 30%; with Eleusine indica (ELEIN), 90%; in assay [3], 60%; with Lolium perenne (LOLPE), 0%. Also, the pest or weed control at 500 g/ha in [4] amounted to 90%; in assay [5], 20%; in assay [6], 70%.
For the compound `CN(C(=O)c1cc[n+](CCS(=O)(=O)O)nc1)c1ccccc1` [Compound A8], the pest or weed control at 500 g/ha in assay [1] amounted to 10%; in assay [2] it was 80%; in the assay on Setaria faberi (SETFA) it was 20%; in the assay with Eleusine indica (ELEIN), 40%; in assay [3], 20%; with Lolium perenne (LOLPE) it was 0%. Besides, the figures for the pest or weed control at 500 g/ha in assay [4], in [5] and in [6] were 100%, 30% and 90%, respectively.
